In the assay the test system is bacterial strain LF82 binding to the glycoprotein BSA-(Mannose)3 (FimH antagonists). The experiment in a line: Bacterial Binding Assay (BBA). It counts as cell-based, Escherichia coli. As to conditions: read-out: Bacterial Binding Assay IC50 ± SEM. The text has this: The purpose of the Bacterial Binding Assay (BBA) is to determine the inhibition activity of selective FimH antagonists on the bacterial strain LF82 binding to the glycoprotein BSA-(Mannose)3.
Below is a list of the Materials used to run the BBA are described below. • 1. LB broth: Supplier: Gibco, #10855 • 2. D-PBS: Supplier: Wisent, #311-425-CL • 3. LB agar plates • 4. 96-well black plate (high binding): Supplier: Costar, #3925 • 5. TopSeal™-A adhesive sealing films; Supplier PerkinElmer, #6005185 • 6. Carbonate-bicarbonate buffer pH 9.6 tablets, Supplier: Medicago, #09-8922-24 • 7. Water, Supplier: Gibco, #15230-162 • 8. Bovine serum albumin (BSA): Supplier: Sigma, #A-7888 • 9. (Man)3-BSA (α1-3, α1-6 Mannotriose-BSA, 1 mg), V-Labs, #NGP1336, lot# HGDX37-169-1 • 10. Tween 20: Supplier: Sigma, #P9416 • 11. Bright-Glo Luciferase Assay System: Supplier: Promega, #E2610 • 12. LF82/Luciferase strain: Invasive ability of an Escherichia coli strain isolated from the ileal mucosa of a patient with Crohn's disease. Boudeau J, Glasser A L, Masseret E, Joly B, Darfeuille-Michaud A, Infect Immun. 1999, 67(9), 4499-509
Solutions and buffers used to run the BBA are described below. • 1. 0.04M carbonate-bicarbonate buffer (coating buffer) • 2. 40 μg/mL BSA-(Man)3: Dissolve 1 mg of (Man)3-BSA in 25 mL of water. • 3. 4000 μg/mL BSA • 4. 40 μg/mL BSA • 5. 1 μg/mL BSA-(Man)3: 150 μL of 40 μg/mL BSA-(Man)3+5.85 mL of 40 μg/mL BSA • 6. 0.5 μg/mL BSA-(Man)3 in 0.02M carbonate-bicarbonate buffer. • 7. 20 μg/mL BSA in 0.02M carbonate-bicarbonate buffer • 8. Blocking buffer (2% BSA/DPBS): 1 g of BSA in 50 mL D-PBS • 9. 2× binding buffer (0.2% BSA/D-PBS): 5 mL of blocking buffer+45 mL D-PBS. • 10. Washing buffer (D-PBS/0.01% Tween 20): 10 μL of Tween 20 in 100 mL D-PBS. • 11. 1× Bright-Glo Luciferase substrate: Dilute 1:1 the Bright-Glo Luciferase Assay System with D-PBS
The experimental protocol used in this example to run the BBA is described below.
Overnight culture of LF82/Luciferase strain: Into two Falcon 50 mL tubes, add 20 mL of LB+20 μL of 50 mg/mL Kanamycin and inoculate with a loop from glycerol stock of the LF82/Luciferase strain. Incubate overnight at 37° C. with no shaking.
Glycoprotein coating of 96-well plates: Add 100 μL/well of 0.5-2 μg/mL BSA-(Man)3. 20 μg/mL BSA is used as the control background. Seal plate using an adhesive sealing film and incubate overnight at room temperature. Wash the 96-well plate three times with 150 μL/well of D-PBS, add 170 μL/well of blocking solution and incubate 45 min (minimum) at room temperature.
Preparation of bacterial suspension: Mix the two cultures tubes (40 mL) and perform a 1:10 dilution in LB (900 μl LB+100 μl culture. Measure optical density (OD) of the bacterial cultures. OD1 ˜5×10^8 cells/mL. Centrifuge LF82 culture for 20 min at 3500 rpm at room temperature. Re-suspend bacterial pellet in D-PBS and centrifuge again for 20 min at 3500 rpm. Re-suspend bacterial pellet in D-PBS to obtain a bacterial concentration of 2×10^9 bacteria/mL. Dilute 1/10 in D-PBS to obtain a final bacterial concentration of 2×10^8 bacteria/mL (=107 bacteria/50 μL). Perform 1/10 serial dilutions in LB of each bacterial suspension, plate 10 μL of dilutions on LB agar plates (final dilutions of 10^−7) and incubate overnight at 37° C. and count CFUs to determine the actual bacteria density in the assay.
Bacterial binding assay: Add 147 μL 2× binding buffer to compound plate (containing 3 μL of compound). After blocking step is performed (at least 45 min), wash plates three times with 200 μL/well of D-PBS. With a 100 μL multichannel manual pipettor, add 50 μL/well of compound diluted in 2× binding buffer. With a 100 μL multichannel manual pipettor, add 50 μL/well of bacterial suspension. Agitate at slow speed for 1 min and incubate 40-75 min at room temperature. Wash 5 times with 150 μL/well of washing buffer and then once with D-PBS. Add 100 μL/well of 1× Bright-Glo Luciferase substrate. […]
For `CNC(=O)c1cc(-c2cc(C#C[C@H]3O[C@H](CO)[C@@H](O)[C@H](O)[C@@H]3O)c3[nH]ncc3c2)ccn1` [Compound 92, N-methyl-4-[7-[2-[(2R,3S,4R,5S,6R)-3,4,5-trihydroxy-6-(hydroxymethyl)tetrahydropyran-2-yl]ethynyl]-1H-indazol-5-yl]pyridine-2-carboxamide], the IC50 came out at 1 nM. For the compound `OC[C@H]1O[C@H](C#Cc2cc(C#CC3CC3)cc3cn[nH]c23)[C@@H](O)[C@@H](O)[C@@H]1O` [Compound 43, (2R,3S,4R,5S,6R)-2-[2-[5-(2-cyclopropylethynyl)-1H-indazol-7-yl]ethynyl]-6-(hydroxymethyl)tetrahydropyran-3,4,5-triol], the IC50 came to 2 ± 1 nM. For the compound `OC[C@H]1O[C@H](C#Cc2cccc3[nH]ncc23)[C@@H](O)[C@@H](O)[C@@H]1O` [Compound 3, (2R,3S,4R,5S,6R)-2-(hydroxymethyl)-6-[2-(1H-indazol-4-yl)ethynyl]tetrahydropyran-3,4,5-triol], the half-inhibitory concentration (IC50) was 110 ± 10 nM. For `OC[C@H]1O[C@H](C#Cc2cc(-c3cc(F)ccc3F)cc3cn[nH]c23)[C@@H](O)[C@@H](O)[C@@H]1O` [Compound 86, (2R,3S,4R,5S,6R)-2-[2-[5-(2,5-difluorophenyl)-1H-indazol-7-yl]ethynyl]-6-(hydroxymethyl)tetrahydropyran-3,4,5-triol] the value was 1 ± 0.2 nM; for `COC(=O)c1cc(C#C[C@H]2O[C@H](CO)[C@@H](O)[C@H](O)[C@@H]2O)c2[nH]ncc2c1` [Compound 57, Methyl 7-[2-[(2R,3S,4R,5S,6R)-3,4,5-trihydroxy-6-(hydroxymethyl)tetrahydropyran-2-yl]ethynyl]-1H-indazole-5-carboxylate], 2 ± 0.6 nM; for `OC[C@H]1O[C@H](C#Cc2cc(C3=CCOCC3)cc3cn[nH]c23)[C@@H](O)[C@@H](O)[C@@H]1O` [Compound 68, (2R,3S,4R,5S,6R)-2-[2-[5-(3,6-dihydro-2H-pyran-4-yl)-1H-indazol-7-yl]ethynyl]-6-(hydroxymethyl)tetrahydropyran-3,4,5-triol], 1 ± 0.4 nM. The value for `CC(=O)Nc1cccc(-c2cc(C#C[C@H]3O[C@H](CO)[C@@H](O)[C@H](O)[C@@H]3O)c3[nH]ncc3c2)c1` [Compound 36, N-[3-[7-[2-[(2R,3S,4R,5S,6R)-3,4,5-trihydroxy-6-(hydroxymethyl)tetrahydropyran-2-yl]ethynyl]-1H-indazol-5-yl]phenyl]acetamide] was 2 ± 0.2 nM; that for `O=[N+]([O-])c1ccc(-c2cc(C#C[C@H]3O[C@H](CO)[C@@H](O)[C@H](O)[C@@H]3O)c3[nH]ncc3c2)cc1` [Compound 28, (2R,3S,4R,5S,6R)-2-(hydroxymethyl)-6-[2-[5-(4-nitrophenyl)-1H-indazol-7-yl]ethynyl]tetrahydropyran-3,4,5-triol] was 0.6 ± 0.4 nM. As for `OC[C@H]1O[C@H](C#Cc2cc(-c3ccc(OCc4ccccc4)nc3)cc3cn[nH]c23)[C@@H](O)[C@@H](O)[C@@H]1O` [Compound 75, (2R,3S,4R,5S,6R)-2-[2-[5-(6-benzyloxy-3-pyridyl)-indazol-7-yl]ethynyl]-6-(hydroxymethyl)tetrahydropyran-3,4,5-triol], the IC50 came to 2 ± 0.7 nM. The value for `CCOC(=O)C1CC=C(c2cc(C#C[C@H]3O[C@H](CO)[C@@H](O)[C@H](O)[C@@H]3O)c3[nH]ncc3c2)CC1` (stereo partly drawn) [Compound 71, ethyl 4-[7-[2-[(2R,3S,4R,5S,6R)-3,4,5-trihydroxy-6-(hydroxymethyl)tetrahydropyran-2-yl]ethynyl]-1H-indazol-5-yl]cyclohex-3-ene-1-carboxylate] was 0.6 ± 0.2 nM. With `CCCCc1cc(C#C[C@H]2O[C@H](CO)[C@@H](O)[C@H](O)[C@@H]2O)c2c(cnn2C)c1` [Compound 22, (2R,3S,4R,5S,6R)-2-[2-(5-butyl-1-methyl-indazol-7-yl)ethynyl]-6-(hydroxymethyl)tetrahydropyran-3,4,5-triol], the IC50 is 53 ± 4 nM.

Turning to `COc1ncc(C)cc1-c1cc(C#C[C@H]2O[C@H](CO)[C@@H](O)[C@H](O)[C@@H]2O)c2[nH]ncc2c1` [Compound 78, (2R,3S,4R,5S,6R)-2-(hydroxymethyl)-6-[2-[5-(2-methoxy-5-methyl-3-pyridyl)-1H-indazol-7-yl]ethynyl]tetrahydropyran-3,4,5-triol], the IC50 came to 2 ± 0.6 nM. The value for `CN(CC#Cc1cc(C#C[C@H]2O[C@H](CO)[C@@H](O)[C@H](O)[C@@H]2O)c2[nH]ncc2c1)Cc1ccccc1` [Compound 51, (2R,3S,4R,5S,6R)-2-[2-[5-[3-[benzyl(methyl)amino]prop-1-ynyl]-1H-indazol-7-yl]ethynyl]-6-(hydroxymethyl)tetrahydropyran-3,4,5-triol] was 3 ± 0.4 nM. For `Cc1cc(C#C[C@H]2O[C@H](CO)[C@@H](O)[C@H](O)[C@@H]2O)c2[nH]ccc2c1` [Compound 4, (2R,3S,4R,5S,6R)-2-(hydroxymethyl)-6-[2-(5-methyl-1H-indol-7-yl)ethynyl]tetrahydropyran-3,4,5-triol] the value was 46 ± 12 nM; for `CNC(=O)c1ccc(F)c(-c2cc(C#C[C@H]3O[C@H](CO)[C@@H](O)[C@H](O)[C@@H]3O)c3[nH]ncc3c2)c1` [Compound 90, 4-fluoro-N-methyl-3-[7-[2-[(2R,3S,4R,5S,6R)-3,4,5-trihydroxy-6-(hydroxymethyl)tetrahydropyran-2-yl]ethynyl]-1H-indazol-5-yl]benzamide], 3 nM; for `NS(=O)(=O)c1cccc(-c2cc(C#C[C@H]3O[C@H](CO)[C@@H](O)[C@H](O)[C@@H]3O)c3[nH]ncc3c2)c1` [Compound 41, 3-[7-[2-[(2R,3S,4R,5S,6R)-3,4,5-trihydroxy-6-(hydroxymethyl)tetrahydropyran-2-yl]ethynyl]-1H-indazol-5-yl]benzenesulfonamide], 0.4 ± 0.04 nM.

For the compound `Cc1cc(C#C[C@H]2O[C@H](CO)[C@@H](O)[C@H](O)[C@@H]2O)c2[nH]ncc2c1` [Compound 2, (2R,3S,4R,5S,6R)-2-(hydroxymethyl)-6-[2-(5-methyl-1H-indazol-7-yl)ethynyl]tetrahydropyran-3,4,5-triol], the IC50 turned out to be 14 ± 2 nM. For `COc1ccc(-c2cc(C#C[C@H]3O[C@H](CO)[C@@H](O)[C@H](O)[C@@H]3O)c3[nH]ncc3c2)cn1` [Compound 73, (2R,3S,4R,5S,6R)-2-(hydroxymethyl)-6-[2-[5-(6-methoxy-3-pyridyl)-1H-indazol-7-yl]ethynyl]tetrahydropyran-3,4,5-triol] the value was 0.5 ± 0.09 nM; for `NC1(C#Cc2cc(C#C[C@H]3O[C@H](CO)[C@@H](O)[C@H](O)[C@@H]3O)c3[nH]ncc3c2)CCCCC1` [Compound 50], 9 ± 1 nM. For `COc1ccc(Cn2ncc3cc(Br)cc(C#C[C@H]4O[C@H](CO)[C@@H](O)[C@H](O)[C@@H]4O)c32)cc1` [Compound 18, (2R,3S,4R,5S,6R)-2-[2-[5-bromo-1-[(4-methoxyphenyl)methyl]indazol-7-yl]ethynyl]-6-(hydroxymethyl)tetrahydropyran-3,4,5-triol] the value was 67 ± 26 nM.

Broadly, the IC50 is the concentration needed to halve the response being measured.
